According to patent publication US11739098B2 (BRISTOL-MYERS SQUIBB COMPANY, priority 2017, dated 2023):

Experiments:
Assay type in all cases: cell-based
human TLR7 = target: T1, human TLR7 (Homo sapiens, UniProt Q9NYK1); assay: TLR7 inhibition reporter assay (HEK-Blue cells, SEAP reporter, gardiquimod stimulation); details: HEK-Blue cells overexpressing human TLR7, SEAP reporter, gardiquimod 7.5 μM
T1 construct: host or cells: HEK-Blue cells (HEK293-derived reporter line)
T1 sequence (Q9NYK1 27-1049): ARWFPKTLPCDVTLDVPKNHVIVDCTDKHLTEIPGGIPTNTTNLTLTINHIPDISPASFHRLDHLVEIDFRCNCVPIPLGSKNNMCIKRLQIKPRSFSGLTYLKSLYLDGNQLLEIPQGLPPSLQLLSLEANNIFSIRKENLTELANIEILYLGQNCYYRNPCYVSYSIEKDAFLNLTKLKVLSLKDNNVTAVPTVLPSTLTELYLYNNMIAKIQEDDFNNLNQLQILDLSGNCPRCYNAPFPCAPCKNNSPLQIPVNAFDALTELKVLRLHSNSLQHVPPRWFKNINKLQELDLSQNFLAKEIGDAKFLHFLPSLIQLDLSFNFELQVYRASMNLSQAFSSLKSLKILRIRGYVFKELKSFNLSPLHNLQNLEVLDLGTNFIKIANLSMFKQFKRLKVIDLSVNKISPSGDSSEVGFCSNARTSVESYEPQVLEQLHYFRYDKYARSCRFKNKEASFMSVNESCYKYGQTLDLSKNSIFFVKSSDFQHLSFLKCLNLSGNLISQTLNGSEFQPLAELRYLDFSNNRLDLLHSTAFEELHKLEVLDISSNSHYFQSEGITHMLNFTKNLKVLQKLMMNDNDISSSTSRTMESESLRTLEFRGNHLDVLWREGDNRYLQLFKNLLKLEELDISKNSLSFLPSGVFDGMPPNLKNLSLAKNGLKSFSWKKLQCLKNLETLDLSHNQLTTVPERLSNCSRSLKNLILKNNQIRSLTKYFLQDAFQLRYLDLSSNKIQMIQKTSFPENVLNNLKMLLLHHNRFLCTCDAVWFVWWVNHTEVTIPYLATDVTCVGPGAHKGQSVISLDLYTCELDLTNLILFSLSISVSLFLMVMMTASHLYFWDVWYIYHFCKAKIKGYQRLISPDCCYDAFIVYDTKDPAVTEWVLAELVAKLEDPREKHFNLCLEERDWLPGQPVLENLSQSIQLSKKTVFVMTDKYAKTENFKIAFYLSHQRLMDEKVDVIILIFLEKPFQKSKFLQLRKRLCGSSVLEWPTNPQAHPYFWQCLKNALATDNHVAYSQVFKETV
How it was run: (§1)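 After 22 h at 37 °C, SEAP secretion was measured from human TLR7-, TLR8- or TLR9-expressing HEK-Blue reporter cells given compound (0.05 nM–50 μM) 30 min before agonist: 7.5 μM gardiquimod, 15.9 μM R848 or 5 nM ODN2006 respectively. Percent inhibition referenced to agonist-plus-DMSO and known-inhibitor wells.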

human TLR8 = target: T2, human TLR8 (Homo sapiens, UniProt Q9NR97); assay: TLR8 inhibition reporter assay (HEK-Blue cells, SEAP reporter, R848 stimulation); details: HEK-Blue cells overexpressing human TLR8, SEAP reporter, R848 15.9 μM
T2 construct: host or cells: HEK-Blue cells (HEK293-derived reporter line)
T2 sequence (Q9NR97 27-1041): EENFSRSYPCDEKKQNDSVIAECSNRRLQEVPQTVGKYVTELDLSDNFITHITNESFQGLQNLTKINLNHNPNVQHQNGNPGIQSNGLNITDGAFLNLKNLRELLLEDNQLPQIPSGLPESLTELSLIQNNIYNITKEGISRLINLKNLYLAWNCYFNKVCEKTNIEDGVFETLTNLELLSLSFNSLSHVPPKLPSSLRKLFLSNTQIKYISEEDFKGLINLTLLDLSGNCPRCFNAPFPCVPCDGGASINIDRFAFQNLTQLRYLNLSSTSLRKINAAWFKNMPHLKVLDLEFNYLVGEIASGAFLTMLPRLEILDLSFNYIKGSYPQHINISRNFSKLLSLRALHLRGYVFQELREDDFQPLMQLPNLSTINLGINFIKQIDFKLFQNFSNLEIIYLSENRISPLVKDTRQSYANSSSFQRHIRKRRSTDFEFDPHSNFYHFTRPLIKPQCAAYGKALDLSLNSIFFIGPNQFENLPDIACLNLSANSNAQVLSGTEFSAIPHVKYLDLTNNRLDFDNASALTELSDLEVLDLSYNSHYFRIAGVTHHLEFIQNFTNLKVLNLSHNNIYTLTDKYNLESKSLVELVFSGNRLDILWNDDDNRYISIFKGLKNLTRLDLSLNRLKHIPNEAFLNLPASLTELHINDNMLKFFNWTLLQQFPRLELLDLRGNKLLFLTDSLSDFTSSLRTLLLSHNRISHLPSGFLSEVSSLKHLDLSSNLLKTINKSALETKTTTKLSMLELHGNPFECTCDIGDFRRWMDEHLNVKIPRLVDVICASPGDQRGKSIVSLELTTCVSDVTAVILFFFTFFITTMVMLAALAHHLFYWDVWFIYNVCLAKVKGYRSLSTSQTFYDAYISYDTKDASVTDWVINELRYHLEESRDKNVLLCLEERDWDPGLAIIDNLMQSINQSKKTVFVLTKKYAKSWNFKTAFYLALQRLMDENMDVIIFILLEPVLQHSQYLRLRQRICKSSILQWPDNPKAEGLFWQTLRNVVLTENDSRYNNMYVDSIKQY
How it was run: as §1

human TLR9 = target: T3, human TLR9 (Homo sapiens, UniProt Q9NR96); assay: TLR9 inhibition reporter assay (HEK-Blue cells, SEAP reporter, ODN2006 stimulation); details: HEK-Blue cells overexpressing human TLR9, SEAP reporter, ODN2006 5 nM
T3 construct: host or cells: HEK-Blue cells (HEK293-derived reporter line)
T3 sequence (Q9NR96 26-1032): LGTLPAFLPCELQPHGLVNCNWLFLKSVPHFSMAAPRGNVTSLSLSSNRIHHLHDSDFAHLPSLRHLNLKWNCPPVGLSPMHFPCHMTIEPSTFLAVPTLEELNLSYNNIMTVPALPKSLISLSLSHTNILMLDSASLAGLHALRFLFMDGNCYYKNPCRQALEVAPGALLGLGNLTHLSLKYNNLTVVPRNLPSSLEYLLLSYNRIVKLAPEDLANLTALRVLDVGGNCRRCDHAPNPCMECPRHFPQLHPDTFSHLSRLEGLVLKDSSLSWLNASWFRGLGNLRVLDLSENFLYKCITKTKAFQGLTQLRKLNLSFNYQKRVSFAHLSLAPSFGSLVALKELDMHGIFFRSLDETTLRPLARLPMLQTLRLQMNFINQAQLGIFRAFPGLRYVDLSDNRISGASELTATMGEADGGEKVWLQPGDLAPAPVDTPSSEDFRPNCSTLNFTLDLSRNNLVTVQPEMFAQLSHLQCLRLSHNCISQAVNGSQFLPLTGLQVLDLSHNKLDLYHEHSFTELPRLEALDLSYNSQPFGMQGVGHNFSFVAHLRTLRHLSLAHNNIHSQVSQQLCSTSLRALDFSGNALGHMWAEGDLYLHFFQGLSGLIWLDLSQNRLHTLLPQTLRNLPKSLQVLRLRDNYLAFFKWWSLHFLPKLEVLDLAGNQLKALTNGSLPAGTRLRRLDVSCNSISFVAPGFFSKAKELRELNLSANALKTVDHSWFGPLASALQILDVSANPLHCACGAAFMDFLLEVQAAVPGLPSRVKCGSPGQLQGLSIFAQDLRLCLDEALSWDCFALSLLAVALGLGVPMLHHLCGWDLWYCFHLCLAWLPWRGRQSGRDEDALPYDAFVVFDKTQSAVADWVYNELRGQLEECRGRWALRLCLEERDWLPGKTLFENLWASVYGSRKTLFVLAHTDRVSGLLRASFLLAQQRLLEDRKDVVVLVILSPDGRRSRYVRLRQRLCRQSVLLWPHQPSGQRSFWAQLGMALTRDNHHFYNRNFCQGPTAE
How it was run: as §1

In the case of `CCc1c(-c2ccc3[nH]c(=O)[nH]c3c2)[nH]c2ccc(C3CCNCC3)cc12` [Example 166, 5-(3-ethyl-5-(piperidin-4-yl)-1H-indol-2-yl)-1,3-dihydro-2H-benzo[d]imidazol-2-one], the IC50 (human TLR7) is reported as 1000 to 50000 nM, the IC50 (human TLR8) is reported as 100 to 1000 nM and the IC50 (human TLR9) is reported as 1000 to 50000 nM.

In the case of `CC(C)c1c(-c2ccnc3[nH]ncc23)[nH]c2ccc(C3CCN(C(=O)CCn4ccnc4)CC3)cc12` [Example 642, 3-(1H-imidazol-1-yl)-1-(4-(3-isopropyl-2-(1H-pyrazolo[3,4-b]pyridin-4-yl)-1H-indol-5-yl)piperidin-1-yl)propan-1-one], the IC50 (human TLR7) is reported as less than 100 nM, the IC50 (human TLR8) is reported as less than 100 nM and the IC50 (human TLR9) is reported as 1000 to 50000 nM.

With `CC(C)c1c(-c2cn3ccnc3cc2C(F)(F)F)[nH]c2ccc(C3CCNCC3)cc12` [Example 135, 6-(3-isopropyl-5-(piperidin-4-yl)-1H-indol-2-yl)-7-(trifluoromethyl)imidazo[1,2-a]pyridine] the IC50 (human TLR7) was 100 to 1000 nM, the IC50 (human TLR8) was less than 100 nM and the IC50 (human TLR9) was 1000 to 50000 nM.

Compound `Cc1cc(-c2[nH]c3ccc(C4CCN(C(=O)CCN(C)C(C)C)CC4)cc3c2C(C)C)cn2nnnc12` [Example 624, 3-(isopropyl(methyl)amino)-1-(4-(3-isopropyl-2-(8-methyltetrazolo[1,5-a]pyridin-6-yl)-1H-indol-5-yl)piperidin-1-yl)propan-1-one] has an IC50 (human TLR7) of less than 100 nM, an IC50 (human TLR8) of less than 100 nM and an IC50 (human TLR9) of 100 to 1000 nM.

With `CC(C)c1c(-c2cnc3nccn3c2)[nH]c2ccc(C3CCN(CC(C)(C)O)CC3)cc12` [Example 761, 1-(4-(2-(imidazo[1,2-a]pyrimidin-6-yl)-3-isopropyl-1H-indol-5-yl)piperidin-1-yl)-2-methylpropan-2-ol] the IC50 (human TLR7) was less than 100 nM, the IC50 (human TLR8) was 100 to 1000 nM and the IC50 (human TLR9) was 100 to 1000 nM.

For `Cc1c(-c2ccnc3c2ccn3C)[nH]c2ccc(C3CCN(C4CCN(CC(C)C)CC4)CC3)cc12` [Example 843, 4-(5-(1′-isobutyl-[1,4′-bipiperidin]-4-yl)-3-methyl-1H-indol-2-yl)-1-methyl-1H-pyrrolo[2,3-b]pyridine], the IC50 (human TLR7) was 1000 to 50000 nM, the IC50 (human TLR8) was less than 100 nM and the IC50 (human TLR9) was less than 100 nM.

`COc1ccc2nc(Cl)c(CN3CCC(c4ccc5[nH]c(-c6ccnc7[nH]ncc67)c(C(C)C)c5c4)CC3)cc2c1` [Example 902, 2-chloro-3-((4-(3-isopropyl-2-(1H-pyrazolo[3,4-b]pyridin-4-yl)-1H-indol-5-yl)piperidin-1-yl)methyl)-6-methoxyquinoline] was tested, and the IC50 (human TLR7) was 100 to 1000 nM, the IC50 (human TLR8) was 100 to 1000 nM and the IC50 (human TLR9) was greater than 50000 nM.

With `Cc1c(-c2[nH]c3ccc(C4CCN(C5CCOCC5)CC4)cc3c2C(C)C)nn2ncnc2c1C` [Example 684, 6-(3-isopropyl-5-(1-(tetrahydro-2H-pyran-4-yl)piperidin-4-yl)-1H-indol-2-yl)-7,8-dimethyl-[1,2,4]triazolo[1,5-b]pyridazine] the IC50 (human TLR7) was less than 100 nM, the IC50 (human TLR8) was less than 100 nM and the IC50 (human TLR9) was 1000 to 50000 nM.

`Cc1nnn2ccc(-c3[nH]c4ccc(C5CCN(C6COC6)CC5)cc4c3C(C)C)cc12` [Example 743, 5-(3-isopropyl-5-(1-(oxetan-3-yl)piperidin-4-yl)-1H-indol-2-yl)-3-methyl-[1,2,3]triazolo[1,5-a]pyridine] was tested, and the IC50 (human TLR7) was less than 100 nM, the IC50 (human TLR8) was less than 100 nM and the IC50 (human TLR9) was 1000 to 50000 nM.

Compound `CC(C)c1c(-c2ccc3nncn3n2)[nH]c2ccc(C3CCNCC3)cc12` [Example 185, 6-(3-isopropyl-5-(piperidin-4-yl)-1H-indol-2-yl)-[1,2,4] triazolo[4,3-b]pyridazine] has an IC50 (human TLR7) of 100 to 1000 nM, an IC50 (human TLR8) of 100 to 1000 nM and an IC50 (human TLR9) of 1000 to 50000 nM.

Compound `CC(C)c1c(-c2cn(C)c3ncccc23)[nH]c2ccc(C3CCN(CC(=O)N4CCOCC4)CC3)cc12` [Example 294, 2-(4-(3-isopropyl-2-(1-methyl-1H-pyrrolo[2,3-b]pyridin-3-yl)-1H-indol-5-yl)piperidin-1-yl)-1-morpholinoethan-1-one] has an IC50 (human TLR7) of less than 100 nM, an IC50 (human TLR8) of less than 100 nM and an IC50 (human TLR9) of 1000 to 50000 nM.

With `CCc1c(-c2cnc3c(N)n[nH]c3c2)[nH]c2ccc(C3CCNCC3)cc12` [Example 240, 6-(3-ethyl-5-(piperidin-4-yl)-1H-indol-2-yl)-1H-pyrazolo[4,3-b]pyridin-3-amine] the IC50 (human TLR7) was 1000 to 50000 nM, the IC50 (human TLR8) was 1000 to 50000 nM and the IC50 (human TLR9) was 1000 to 50000 nM.

Work on `CNC(=O)CN1CCC(c2ccc3[nH]c(-c4ccn5nncc5c4)c(C(C)C)c3c2)CC1` [Example 303, 2-(4-(2-([1,2,3]triazolo[1,5-a]pyridin-5-yl)-3-isopropyl-1H-indol-5-yl)piperidin-1-yl)-N-methylacetamide] yielded an IC50 (human TLR7) of less than 100 nM, an IC50 (human TLR8) of 100 to 1000 nM and an IC50 (human TLR9) of 1000 to 50000 nM.

For `CC(C)c1c(-c2cn(C)c3ncccc23)[nH]c2ccc(C3CCN(Cc4ncn(C)n4)CC3)cc12` [Example 878, 3-(3-isopropyl-5-(1-((1-methyl-1H-1,2,4-triazol-3-yl)methyl)piperidin-4-yl)-1H-indol-2-yl)-1-methyl-1H-pyrrolo[2,3-b]pyridine], the IC50 (human TLR7) was less than 100 nM, the IC50 (human TLR8) was less than 100 nM and the IC50 (human TLR9) was 1000 to 50000 nM.
